Laboratory results: patent US9056111B1, “Selective efflux inhibitors and related pharmaceutical compositions and methods of treatment” (STC.UNM, priority 2011, dated 2015)
Where two headings read alike, the source gives them in different places.

Experiments:
ABCB1 = ABCB1 (Homo sapiens, UniProt P08183); experiment: JC-1 efflux inhibition dose response, flow cytometry, Jurkat-DNR cells; settings: for IC50: Jurkat-DNR cells over-expressing ABCB1, averages of two to four replicates
Method: (§1) The HyperCyt® high throughput flow cytometry platform (IntelliCyt™, Albuquerque, N. Mex.) was used to sequentially sample cells from 384-well microplates (2 μL/sample) for flow cytometer presentation at a rate of 40 samples per minute.^62-63 Flow cytometric analysis was performed on a CyAn™ flow cytometer (Beckman-Coulter, Fullerton, Calif.). The resulting time-gated data files were analyzed with HyperView® software to determine compound activity in each well. Inhibition response curves were fitted by Prism® software (GraphPad Software, Inc., San Diego, Calif.) using nonlinear least-squares regression in a sigmoidal dose response model with variable slope, also known as the four-parameter logistic equation. This type of time-gated flow cytometric data analysis was described in detail for a previous ABC transporter screen from our group.^56
The assay provider's ABCB1 over-expressing Jurkat-DNR cell line is used for confirmatory follow up instead of the CCRF-Adr cells. Each cell line (Jurkat-DNR and Ig-MXP3) is run separately against all compounds (no differential cell staining) in dose response. The assay is conducted in 384-well format in a total volume of 15.1 μL. Cells and reagents are added sequentially as follows: 1) PBS buffer (5 μL/well); 2) test compound (100 nL/well); 3) drug-resistant cells (10 μL/well) pre-stained with the JC-1 substrate at 1 μM. Final in-well concentrations of test compound range from 50 μM to 69 nM over an 18 point dose response and the cell concentration is 1×10^6 cells/mL. Nicardipine (50 μM) is added to each plate as a pan-inhibition positive control. The plate is rotated end-over-end at 4 RPM and 25° C. for 30 minutes and then cell samples are analyzed and flow cytometric data of light scatter and fluorescence emission at 530+/−20 nm (488 nm excitation, FL1) are collected.
(§2) Each cell line (Jurkat-DNR and Ig-MXP3) was run separately against all compounds (no differential cell staining) in dose-response. The protocol differed from the single point screen as describe here. Cells and reagents were added sequentially as follows: 1) PBS buffer (5 μL per well); 2) test compound (100 nL per well); 3) drug-resistant cells (10 μL, per well) pre-exposed to the JC-1 substrate at 1 μM just prior to the well addition. Final in-well concentrations of test compound ranged from 50 μM to 69 nM over an 18 point dose-response and the cell concentration was 1×10^6 cells mL^−1.

ABCG2 = biological target: T1, ABCG2 (Homo sapiens, UniProt Q9UNQ0); experiment: JC-1 efflux inhibition dose response, flow cytometry, Ig-MXP3 cells; settings: for ~Fold G2 Selective (B1/G2): quotient of average ABCB1 IC50 and average ABCG2 IC50, efflux assay
T1 sequence (Q9UNQ0 1-655): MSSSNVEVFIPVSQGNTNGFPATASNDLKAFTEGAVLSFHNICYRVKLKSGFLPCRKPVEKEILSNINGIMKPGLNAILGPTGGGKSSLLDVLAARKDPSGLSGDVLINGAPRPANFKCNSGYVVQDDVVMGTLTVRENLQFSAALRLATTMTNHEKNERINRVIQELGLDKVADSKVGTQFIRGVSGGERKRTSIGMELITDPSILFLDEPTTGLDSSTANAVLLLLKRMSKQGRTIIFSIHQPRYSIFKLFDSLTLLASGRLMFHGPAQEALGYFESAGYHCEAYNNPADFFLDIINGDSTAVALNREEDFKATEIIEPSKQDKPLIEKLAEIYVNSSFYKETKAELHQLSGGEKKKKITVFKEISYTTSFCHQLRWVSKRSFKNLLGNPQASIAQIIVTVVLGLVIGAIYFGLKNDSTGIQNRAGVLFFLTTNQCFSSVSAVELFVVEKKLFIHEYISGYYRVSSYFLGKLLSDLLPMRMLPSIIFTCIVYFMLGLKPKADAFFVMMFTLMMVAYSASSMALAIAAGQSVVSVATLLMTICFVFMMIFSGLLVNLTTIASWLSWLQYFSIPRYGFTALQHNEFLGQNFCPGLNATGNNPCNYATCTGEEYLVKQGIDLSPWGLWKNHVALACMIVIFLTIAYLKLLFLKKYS
Method: as §1
(§3) The assay provider's ABCB1 over-expressing Jurkat-DNR cell line is used for confirmatory follow up instead of the CCRF-Adr cells. Each cell line (Jurkat-DNR and Ig-MXP3) is run separately against all compounds (no differential cell staining) in dose response. The assay is conducted in 384-well format in a total volume of 15.1 μL. Cells and reagents are added sequentially as follows: 1) PBS buffer (5 μL/well); 2) test compound (100 nL/well); 3) drug-resistant cells (10 μL/well) pre-stained with the JC-1 substrate at 1 μM. […] Nicardipine (50 μM) is added to each plate as a pan-inhibition positive control.
as §2, with “addition.” for “addition. Final in-well concentrations of test compound ranged from 50 μM to 69 nM over an 18 point dose-response and the cell concentration was 1×10^6 cells mL^−1.”

ABCB1 / ABCG2 = biological target: T2, ABCB1 / ABCG2 (Homo sapiens, UniProt Q9UNQ0); experiment: as above; settings: human, probe JC-1 (1 µM), ~Fold G2 Selective (B1/G2), quotient of average ABCB1 IC50 and average ABCG2 IC50, efflux assay
T2 sequence (Q9UNQ0 1-655): T1 sequence (Q9UNQ0 1-655)
Method: as §1, §3
as §2, with “addition.” for “addition. Final in-well concentrations of test compound ranged from 50 μM to 69 nM over an 18 point dose-response and the cell concentration was 1×10^6 cells mL^−1.”

[1] = IC50 ABCB1 (efflux inhibition of JC-1 substrate)
[2] = read-out: IC50 ABCB1 (efflux inhibition of JC-1 substrate)
[3] = read-out: IC50 ABCG2 (efflux inhibition of JC-1 substrate), Ig-MXP3 cells over-expressing ABCG2, averages of two to four replicates

ABCB1, sequence (P08183 whole entry): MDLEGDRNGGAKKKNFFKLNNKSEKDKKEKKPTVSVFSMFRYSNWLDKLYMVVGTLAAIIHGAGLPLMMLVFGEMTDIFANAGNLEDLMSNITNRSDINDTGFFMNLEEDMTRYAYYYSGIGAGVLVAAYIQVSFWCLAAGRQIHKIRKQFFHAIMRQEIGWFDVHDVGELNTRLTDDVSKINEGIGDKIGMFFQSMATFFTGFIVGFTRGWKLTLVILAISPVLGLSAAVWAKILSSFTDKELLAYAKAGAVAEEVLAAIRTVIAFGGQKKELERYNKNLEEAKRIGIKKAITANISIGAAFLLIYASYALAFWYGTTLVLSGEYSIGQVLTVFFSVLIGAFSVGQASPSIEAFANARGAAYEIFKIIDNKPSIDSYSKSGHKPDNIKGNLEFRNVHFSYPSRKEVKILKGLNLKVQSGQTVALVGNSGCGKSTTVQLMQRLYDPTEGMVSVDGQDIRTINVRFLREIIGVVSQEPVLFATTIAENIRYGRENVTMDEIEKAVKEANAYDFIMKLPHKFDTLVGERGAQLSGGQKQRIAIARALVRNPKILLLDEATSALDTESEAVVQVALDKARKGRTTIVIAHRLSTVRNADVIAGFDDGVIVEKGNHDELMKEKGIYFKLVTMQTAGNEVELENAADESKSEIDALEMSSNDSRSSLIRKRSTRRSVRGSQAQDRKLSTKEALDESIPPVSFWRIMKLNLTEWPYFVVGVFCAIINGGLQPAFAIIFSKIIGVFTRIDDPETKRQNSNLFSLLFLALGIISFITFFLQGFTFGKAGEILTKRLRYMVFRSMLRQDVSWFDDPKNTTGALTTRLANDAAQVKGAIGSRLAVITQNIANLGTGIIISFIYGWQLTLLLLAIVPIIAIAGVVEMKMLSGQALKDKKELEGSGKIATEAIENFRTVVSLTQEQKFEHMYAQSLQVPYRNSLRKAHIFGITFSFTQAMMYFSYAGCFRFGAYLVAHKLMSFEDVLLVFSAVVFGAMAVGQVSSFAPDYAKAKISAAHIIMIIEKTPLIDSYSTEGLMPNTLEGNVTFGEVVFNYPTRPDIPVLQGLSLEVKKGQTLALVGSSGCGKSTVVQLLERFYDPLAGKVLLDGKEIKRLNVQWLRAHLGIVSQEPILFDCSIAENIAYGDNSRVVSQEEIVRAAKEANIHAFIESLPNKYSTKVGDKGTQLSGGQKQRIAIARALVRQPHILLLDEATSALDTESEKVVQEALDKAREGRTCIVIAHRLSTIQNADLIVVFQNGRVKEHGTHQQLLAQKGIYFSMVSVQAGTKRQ

Row | SMILES | IC50 (ABCB1; [1]) | IC50 (ABCG2) | ~Fold G2 Selective (B1/G2) (ABCG2) | IC50 (ABCB1; [2]) | IC50 (ABCG2; [3]) | efflux inhibition activity ABCB1 (ABCB1; JC-1 efflux, Jurkat-DNR) | efflux inhibition activity ABCG2 (ABCG2; JC-1 efflux, Ig-MXP3) | selectivity ratio at 30 min (ABCB1 / ABCG2)
1 | COc1ccc2c3c([nH]c2c1)[C@H](C=C(C)C)N1C(=O)[C@@H]2CCCN2C(=O)[C@@H]1C3 [Compound 3, reference compound] | – | – | – | – | – | no activity | no activity | –
2 | Cc1cc(N2CCN(C(=O)c3ccco3)CC2)n2nc(-c3cccc(Cl)c3)cc2n1 [Compound 10] | 5880 ± 1170 nM | 2780 ± 820 nM | – | – | – | – | – | 2.1
3 | O=C(c1ccccc1)N1CCN(c2cc(-c3ccccc3)nc3cc(-c4cccc(Cl)c4)nn23)CC1 [Compound 13] | 3420 ± 1640 nM | 1450 ± 590 nM | – | – | – | – | – | 2.4
4 | COc1ccccc1C(=O)N1CCN(c2cc(-c3ccccc3)nc3cc(-c4cccc(Cl)c4)nn23)CC1 [Compound 14] | 4730 ± 1780 nM | 4920 ± 4280 nM | – | – | – | – | – | 1
5 | COc1ccc(C(=O)N2CCN(c3cc(-c4ccccc4)nc4cc(-c5cccc(Cl)c5)nn34)CC2)cc1 [Compound 16] | 2890 ± 550 nM | 2820 ± 1910 nM | – | – | – | – | – | 1
6 | O=C(c1ccccc1Cl)N1CCN(c2cc(-c3ccccc3)nc3cc(-c4cccc(Cl)c4)nn23)CC1 [Compound 17] | 1850 ± 750 nM | 1310 ± 230 nM | – | – | – | – | – | 1.4
7 | O=C(c1cccc(Cl)c1)N1CCN(c2cc(-c3ccccc3)nc3cc(-c4cccc(Cl)c4)nn23)CC1 [Compound 18] | 4190 ± 1880 nM | 2950 ± 570 nM | – | – | – | – | – | 1.4
8 | O=C(c1ccc(Cl)cc1)N1CCN(c2cc(-c3ccccc3)nc3cc(-c4cccc(Cl)c4)nn23)CC1 [Compound 19] | 2360 ± 700 nM | 2670 ± 850 nM | – | – | – | – | – | 0.9
9 | O=C(C1CCCCC1)N1CCN(c2cc(-c3ccccc3)nc3cc(-c4cccc(Cl)c4)nn23)CC1 [Compound 22] | 3310 ± 1860 nM | 2670 ± 1260 nM | – | – | – | – | – | 1.2
10 | O=S(=O)(c1ccccc1)N1CCN(c2cc(-c3ccccc3)nc3cc(-c4cccc(Cl)c4)nn23)CC1 [Compound 25] | > 50000 nM | > 50000 nM | – | – | – | – | – | –
11 | O=C(c1ccoc1)N1CCN(c2cc(-c3ccccc3F)nc3cc(-c4cccc(Cl)c4)nn23)CC1 [Compound 26] | 4690 ± 1500 nM | 1930 ± 480 nM | – | – | – | – | – | 2.4
12 | O=C(c1ccoc1)N1CCN(c2cc(-c3ccc(F)cc3)nc3cc(-c4cccc(Cl)c4)nn23)CC1 [Compound 27] | 5650 ± 110 nM | 2410 ± 520 nM | – | – | – | – | – | 2.3
13 | COc1cccc(-c2cc(N3CCN(C(=O)c4ccoc4)CC3)n3nc(-c4cccc(Cl)c4)cc3n2)c1 [Compound 28] | 2170 ± 1020 nM | 1140 ± 540 nM | – | – | – | – | – | 1.9
14 | COc1ccc(-c2cc(N3CCN(C(=O)c4ccoc4)CC3)n3nc(-c4cccc(Cl)c4)cc3n2)cc1 [Compound 29] | 4120 ± 1050 nM | 1710 ± 580 nM | – | – | – | – | – | 2.4
15 | C#Cc1cc(N2CCN(C(=O)c3ccoc3)CC2)n2nc(-c3cccc(Cl)c3)cc2n1 [Compound 32] | 10200 ± 3990 nM | 2360 ± 530 nM | – | – | – | – | – | 4.3
16 | COc1ccccc1-c1cc2nc(-c3ccccc3)cc(N3CCN(C(=O)c4ccccc4)CC3)n2n1 [Compound 41] | – | – | 3.0 fold | 2310 ± 790 nM | 760 ± 60 nM | – | – | –
17 | CN(C)CCN(C)c1cc(-c2ccco2)nc2cc(-c3ccccc3)nn12 [Compound 78] | > 50000 nM | 8880 ± 2820 nM | – | – | – | – | – | –
18 | O=C(Nc1ccccc1)C1CCN(c2cc(-c3ccco3)nc3cc(-c4ccccc4)nn23)CC1 [Compound 84] | > 50000 nM | 8030 ± 2180 nM | – | – | – | – | – | –

More lines, main results first:

Row | IC50 (ABCB1; [1]) | IC50 (ABCG2) | ~Fold G2 Selective (B1/G2) (ABCG2) | IC50 (ABCB1; [2]) | IC50 (ABCG2; [3]) | SMILES | efflux inhibition activity ABCB1 (ABCB1; JC-1 efflux, Jurkat-DNR) | efflux inhibition activity ABCG2 (ABCG2; JC-1 efflux, Ig-MXP3) | selectivity ratio at 30 min (ABCB1 / ABCG2)
19 | 8580 ± 630 nM | 1190 ± 260 nM | 7.2 fold | – | – | O=C(c1ccoc1)N1CCN(c2cc(-c3ccccc3)nc3cc(-c4cccc(Cl)c4)nn23)CC1 [Compound 11] | – | – | 7
20 | 3970 ± 800 nM | 1400 ± 320 nM | – | – | – | O=C(c1ccsc1)N1CCN(c2cc(-c3ccccc3)nc3cc(-c4cccc(Cl)c4)nn23)CC1 [Compound 12] | – | – | 2.8
21 | 5670 ± 2210 nM | 6070 ± 730 nM | – | – | – | CC(=O)N1CCN(c2cc(-c3ccccc3)nc3cc(-c4cccc(Cl)c4)nn23)CC1 [Compound 23] | – | – | 0.9
22 | 1310 ± 350 nM | 760 ± 430 nM | – | – | – | O=C(c1ccoc1)N1CCN(c2cc(-c3ccccc3)nc3cc(-c4ccc(Br)cc4)nn23)CC1 [Compound 33] | – | – | 1.7
23 | 2260 ± 830 nM | 1140 ± 590 nM | – | – | – | COc1cccc(-c2cc3nc(-c4ccccc4)cc(N4CCN(C(=O)c5ccoc5)CC4)n3n2)c1 [Compound 35] | – | – | 2
24 | – | – | 2.9 fold | 3000 ± 570 nM | 1030 ± 170 nM | COc1ccccc1-c1cc2nc(-c3ccccc3)cc(N3CCN(C(=O)c4ccco4)CC3)n2n1 [Compound 37] | – | – | –
25 | 4770 ± 630 nM | 1400 ± 320 nM | – | – | – | COc1cccc(-c2cc3nc(-c4ccccc4)cc(N4CCN(C(=O)c5ccco5)CC4)n3n2)c1 [Compound 38] | – | – | 3.4
26 | 3640 ± 1470 nM | 1370 ± 530 nM | – | – | – | O=C(c1ccco1)N1CCN(c2cc(-c3ccccc3)nc3cc(-c4ccc(Cl)cc4)nn23)CC1 [Compound 39] | – | – | 2.7
27 | 3880 ± 1670 nM | 2460 ± 1090 nM | – | – | – | Cc1cccc(-c2cc3nc(-c4ccccc4)cc(N4CCN(C(=O)c5ccco5)CC4)n3n2)c1 [Compound 40] | – | – | 1.6
28 | – | – | 3.6 fold | 4930 ± 1760 nM | 1380 ± 1040 nM | O=C(c1ccsc1)N1CCN(c2cc(-c3ccco3)nc3cc(-c4ccccc4)nn23)CC1 [Compound 68] | – | – | –
29 | – | – | 5.1 fold | 11900 ± 7400 nM | 2330 ± 2230 nM | Cc1occc1C(=O)N1CCN(c2cc(-c3ccco3)nc3cc(-c4ccccc4)nn23)CC1 [Compound 70] | – | – | –
30 | – | – | 2.0 fold | 7320 ± 2520 nM | 3680 ± 2210 nM | Cc1coc(C)c1C(=O)N1CCN(c2cc(-c3ccco3)nc3cc(-c4ccccc4)nn23)CC1 [Compound 71] | – | – | –
31 | – | – | 3.6 fold | 12000 ± 6110 nM | 3370 ± 1190 nM | Cc1cc(C(=O)N2CCN(c3cc(-c4ccco4)nc4cc(-c5ccccc5)nn34)CC2)c(C)o1 [Compound 72] | – | – | –
32 | – | – | 3.1 fold | 8830 ± 6630 nM | 2840 ± 960 nM | O=C(c1coc2ccccc12)N1CCN(c2cc(-c3ccco3)nc3cc(-c4ccccc4)nn23)CC1 [Compound 73] | – | – | –
